# Experimental data from ChEMBL document CHEMBL5046296 (J Med Chem, 2022).
# What was measured:
# [1] = target: Cytochrome P450 3A4 (Homo sapiens, UniProt P08684); assay: Inhibition of CYP3A4 (unknown origin) using BFC as substrate; assay type: ADME
# [2] = Drug concentration in brain of overnight fasted Sprague-Dawley rat model of streptozotocin induced diabetic peripheral neuropathic mechanical allodynia at 1 mg/kg, po measured after 5.5 hrs; assay type: ADME, organism-based; conditions: read-out: Ct
# [3] = Protein binding in rat plasma assessed as unbound fraction at 10 uM measured after 5 hrs by LC-MS/MS analysis; assay type: ADME, cell-free
# [4] = target: T1, AP2-associated protein kinase 1 (Homo sapiens, UniProt Q2M2I8); assay: Inhibition of […] in HEK293F cells assessed as reduction in phospho mu2 formation incubated for 3 hrs by Western blot analysis; assay type: cell-based
# [5] = target: Glycogen synthase kinase-3 alpha (Homo sapiens, UniProt P49840); assay: Inhibition of GSK3A (unknown origin)
# [6] = Protein binding in mouse plasma assessed as unbound fraction at 10 uM measured after 5 hrs by LC-MS/MS analysis; assay type: ADME, cell-free
# [7] = Permeability across basolateral to apical side in human Caco-2 cells at 3 uM measured after 2 hrs by LC-MS/MS analysis; assay type: ADME, cell-based; conditions: read-out: permeability
# [8] = Permeability across apical to basolateral side in human Caco-2 cells at 3 uM measured after 2 hrs by LC-MS/MS analysis; assay type: ADME, cell-based; conditions: read-out: permeability
# [9] = Cmax in plasma of overnight fasted Sprague-Dawley rat model of streptozotocin induced diabetic peripheral neuropathic mechanical allodynia at 1 mg/kg, po measured after 5.5 hrs; assay type: ADME, organism-based; design: route oral, time 5.5 hrs, dose 1 mg/kg
# [10] = tested on: Rattus norvegicus; assay: Analgesic activity in streptozotocin induced diabetic peripheral neuropathic mechanical allodynia in overnight fasted Sprague-Dawley rat model assessed as reduction in pain response at 1 mg/kg, po measured after 5.5 hrs post treatment; assay type: functional; design: scale not given: the % may be the effect or the level left
# [11] = Displacement of 3H-LP-927443 from AAK1 in mouse brain membrane homogenate assessed as inhibition constant at 1 uM incubated for 1 hr by liquid scintillation counter analysis; assay type: cell membranes
# [12] = Metabolic stability in rat liver microsomes assessed as CYP450-mediated metabolism by measuring parent compound remaining at 0.5 uM incubated for 10 mins in presence of NADPH by LC-MS/MS analysis; assay type: ADME; conditions: read-out: Stability
# [13] = target: cGMP-dependent protein kinase 2 (Homo sapiens, UniProt Q13237); assay: Inhibition of PKG2 (unknown origin)
# [14] = target: MAP kinase-interacting serine/threonine-protein kinase 2 (Homo sapiens, UniProt Q9HBH9); assay: Inhibition of MNK2 (unknown origin)
# [15] = Metabolic stability in mouse liver microsomes assessed as CYP450-mediated metabolism by measuring parent compound remaining at 0.5 uM incubated for 10 mins in presence of NADPH by LC-MS/MS analysis; assay type: ADME; conditions: read-out: Stability
# [16] = Drug concentration in streptozotocin induced diabetic peripheral neuropathic mechanical allodynia in overnight fasted Sprague-Dawley rat spinal cord at 1 mg/kg, po measured after 5.5 hrs; assay type: ADME, organism-based; conditions: read-out: Ct
# [17] = Permeability of compound at pH 7.4 measured after 4 hrs by PAMPA assay; assay type: ADME; conditions: read-out: permeability
# [18] = Ratio of drug concentration in brain to plasma in streptozotocin induced diabetic peripheral neuropathic mechanical allodynia in overnight fasted Sprague-Dawley rat at 1 mg/kg, po measured after 5.5 hrs; assay type: ADME, organism-based
# [19] = Protein binding in human plasma assessed as unbound fraction at 10 uM measured after 5 hrs by LC-MS/MS analysis; assay type: ADME, cell-free
# [20] = target: Cytochrome P450 (Homo sapiens, UniProt P04798+P05177+P05181+P08684+P10632+P10635+P11509+P11712+P13584+P20813+P20815+P20853+P24462+P24903+P33260+P33261+P51589+P78329+P98187+Q02928+Q08477+Q16678+Q16696+Q5TCH4+Q6VVX0+Q7Z449+Q8TAV3+Q96SQ9+Q9HB55); assay: Metabolic stability in human liver microsomes assessed as CYP450-mediated metabolism by measuring parent compound remaining at 0.5 uM incubated for 10 mins in presence of NADPH by LC-MS/MS analysis; assay type: ADME; conditions: read-out: Stability
# [21] = Permeability of compound at pH 5.5 measured after 4 hrs by PAMPA assay; assay type: ADME; conditions: read-out: permeability
# [22] = target: T1, AP2-associated protein kinase 1; assay: Inhibition of GST-Xa tagged human AAK1 (30 to 330 residues) expresssed in bacteria using (5-FAM)-Aha-KEEQSQITSQVTGQIGWR-NH2 peptide as substrate incubated for 3 hrs in presence of ATP by electrophoretic analysis
# [23] = tested on: Aorta; assay: Cardiotoxicity in rat aortic ring assessed as relaxation of phenylephrine induced aortic ring contraction at 10 uM incubated for 1 hr; assay type: toxicity, tissue-based; design: scale not given: the % may be the effect or the level left
# [24] = target: Cyclin-G-associated kinase (Homo sapiens, UniProt O14976); assay: Inhibition of GAK (unknown origin)
# [25] = target: Citron Rho-interacting kinase (Homo sapiens, UniProt O14578); assay: Inhibition of CRIK (unknown origin)
# [26] = Inhibition of PCKA (unknown origin); design: species or system Homo sapiens
# [27] = target: Rho-associated protein kinase 2 (Homo sapiens, UniProt O75116); assay: Inhibition of ROCK2 (unknown origin)
# [28] = target: Serine/threonine-protein kinase N2 (Homo sapiens, UniProt Q16513); assay: Inhibition of PRK2 (unknown origin)
# [29] = target: MAP kinase-interacting serine/threonine-protein kinase 1 (Homo sapiens, UniProt Q9BUB5); assay: Inhibition of MNK1 (unknown origin)
# [30] = target: BMP-2-inducible protein kinase (Homo sapiens, UniProt Q9NSY1); assay: Inhibition of BIKE (unknown origin)
# [31] = Toxicity in naive Sprague-Dawley rat assessed as motor impairment at 100 mg/kg, po measured after 5 hrs by rotarod test; assay type: organism-based; conditions: in vivo
# Chain of Cytochrome P450 3A4 (P08684 whole entry): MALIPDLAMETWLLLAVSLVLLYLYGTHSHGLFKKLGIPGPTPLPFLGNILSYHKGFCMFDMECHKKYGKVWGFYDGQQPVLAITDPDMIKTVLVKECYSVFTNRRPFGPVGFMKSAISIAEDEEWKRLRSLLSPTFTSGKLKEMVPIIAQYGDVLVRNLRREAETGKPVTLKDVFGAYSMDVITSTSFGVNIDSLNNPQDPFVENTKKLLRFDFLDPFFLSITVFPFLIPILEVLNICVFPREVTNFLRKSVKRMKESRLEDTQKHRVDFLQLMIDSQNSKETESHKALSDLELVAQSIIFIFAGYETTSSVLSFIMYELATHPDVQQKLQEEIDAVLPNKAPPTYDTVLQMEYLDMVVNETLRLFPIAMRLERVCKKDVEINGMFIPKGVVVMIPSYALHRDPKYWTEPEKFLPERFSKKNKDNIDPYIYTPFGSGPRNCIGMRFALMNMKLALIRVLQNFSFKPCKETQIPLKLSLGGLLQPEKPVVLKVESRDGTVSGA
# T1 sequence (Q2M2I8 whole entry): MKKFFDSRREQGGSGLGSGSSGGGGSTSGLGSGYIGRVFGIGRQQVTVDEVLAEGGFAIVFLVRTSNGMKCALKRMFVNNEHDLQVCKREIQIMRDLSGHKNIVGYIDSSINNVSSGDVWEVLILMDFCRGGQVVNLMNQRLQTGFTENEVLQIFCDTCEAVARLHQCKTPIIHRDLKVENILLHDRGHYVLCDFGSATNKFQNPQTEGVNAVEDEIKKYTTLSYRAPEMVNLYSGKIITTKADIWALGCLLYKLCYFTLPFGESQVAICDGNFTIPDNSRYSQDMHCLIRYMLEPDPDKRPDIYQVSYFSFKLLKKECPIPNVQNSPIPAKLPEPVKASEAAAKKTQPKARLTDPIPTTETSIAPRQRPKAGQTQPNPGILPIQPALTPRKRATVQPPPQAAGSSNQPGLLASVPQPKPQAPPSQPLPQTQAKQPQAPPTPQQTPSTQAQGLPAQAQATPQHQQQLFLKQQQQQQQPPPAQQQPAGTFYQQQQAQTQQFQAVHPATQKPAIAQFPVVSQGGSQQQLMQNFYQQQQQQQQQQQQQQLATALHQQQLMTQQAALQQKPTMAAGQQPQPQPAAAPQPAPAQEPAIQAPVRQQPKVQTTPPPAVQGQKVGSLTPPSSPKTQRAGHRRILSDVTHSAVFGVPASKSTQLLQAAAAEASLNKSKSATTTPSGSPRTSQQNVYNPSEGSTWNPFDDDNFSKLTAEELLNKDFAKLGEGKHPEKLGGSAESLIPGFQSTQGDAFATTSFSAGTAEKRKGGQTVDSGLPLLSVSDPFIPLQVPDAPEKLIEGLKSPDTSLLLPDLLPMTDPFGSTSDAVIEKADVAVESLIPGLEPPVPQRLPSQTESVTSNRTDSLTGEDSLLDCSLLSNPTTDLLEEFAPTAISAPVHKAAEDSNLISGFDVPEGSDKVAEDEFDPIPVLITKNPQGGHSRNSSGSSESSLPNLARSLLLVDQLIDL
# Chain of cGMP-dependent protein kinase 2 (Q13237 whole entry): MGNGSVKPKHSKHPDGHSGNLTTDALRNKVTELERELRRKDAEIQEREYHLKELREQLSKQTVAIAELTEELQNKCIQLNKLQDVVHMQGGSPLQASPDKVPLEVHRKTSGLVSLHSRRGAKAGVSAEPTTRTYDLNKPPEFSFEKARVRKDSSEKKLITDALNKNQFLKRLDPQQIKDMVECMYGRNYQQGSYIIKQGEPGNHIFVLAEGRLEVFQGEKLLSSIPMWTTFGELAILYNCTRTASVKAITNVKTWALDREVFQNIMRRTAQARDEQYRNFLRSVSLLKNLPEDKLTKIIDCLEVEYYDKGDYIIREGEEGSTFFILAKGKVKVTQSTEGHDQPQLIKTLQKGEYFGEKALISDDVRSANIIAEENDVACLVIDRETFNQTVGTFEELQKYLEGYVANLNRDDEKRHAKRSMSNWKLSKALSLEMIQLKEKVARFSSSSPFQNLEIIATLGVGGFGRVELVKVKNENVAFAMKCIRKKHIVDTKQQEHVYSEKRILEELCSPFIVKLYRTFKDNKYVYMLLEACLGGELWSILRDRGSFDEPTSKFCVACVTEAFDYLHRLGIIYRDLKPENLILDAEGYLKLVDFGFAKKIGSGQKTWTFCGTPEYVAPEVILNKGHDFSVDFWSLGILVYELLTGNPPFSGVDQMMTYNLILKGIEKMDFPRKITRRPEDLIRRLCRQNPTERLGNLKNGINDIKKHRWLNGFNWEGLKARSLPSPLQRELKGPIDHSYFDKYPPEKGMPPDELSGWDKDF
# Chain of Serine/threonine-protein kinase N2 (Q16513 whole entry): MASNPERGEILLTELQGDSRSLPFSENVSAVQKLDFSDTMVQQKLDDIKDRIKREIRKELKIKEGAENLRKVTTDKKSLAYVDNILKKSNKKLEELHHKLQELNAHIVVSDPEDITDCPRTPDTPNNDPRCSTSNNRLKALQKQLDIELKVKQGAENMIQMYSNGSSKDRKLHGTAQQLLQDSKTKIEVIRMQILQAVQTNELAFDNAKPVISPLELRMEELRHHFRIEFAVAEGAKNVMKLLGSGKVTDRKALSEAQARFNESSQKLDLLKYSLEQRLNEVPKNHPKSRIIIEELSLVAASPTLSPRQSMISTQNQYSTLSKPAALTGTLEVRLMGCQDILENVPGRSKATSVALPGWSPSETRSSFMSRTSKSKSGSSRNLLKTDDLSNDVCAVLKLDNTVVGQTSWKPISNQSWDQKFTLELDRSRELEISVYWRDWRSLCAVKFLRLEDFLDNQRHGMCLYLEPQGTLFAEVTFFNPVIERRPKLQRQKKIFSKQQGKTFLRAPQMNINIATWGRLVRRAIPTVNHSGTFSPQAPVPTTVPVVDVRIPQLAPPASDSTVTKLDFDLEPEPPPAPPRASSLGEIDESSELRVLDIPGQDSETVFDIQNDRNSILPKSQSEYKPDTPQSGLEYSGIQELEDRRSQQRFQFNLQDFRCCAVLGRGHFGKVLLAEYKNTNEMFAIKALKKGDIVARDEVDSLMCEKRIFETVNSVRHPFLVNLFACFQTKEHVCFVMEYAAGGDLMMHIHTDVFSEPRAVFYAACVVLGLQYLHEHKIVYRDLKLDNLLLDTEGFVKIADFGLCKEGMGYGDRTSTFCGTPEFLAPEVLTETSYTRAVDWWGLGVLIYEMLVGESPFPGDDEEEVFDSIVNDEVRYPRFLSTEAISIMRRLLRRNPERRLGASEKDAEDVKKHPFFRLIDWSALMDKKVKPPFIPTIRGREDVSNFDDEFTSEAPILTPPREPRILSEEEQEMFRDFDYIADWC
# Chain of Rho-associated protein kinase 2 (O75116 whole entry): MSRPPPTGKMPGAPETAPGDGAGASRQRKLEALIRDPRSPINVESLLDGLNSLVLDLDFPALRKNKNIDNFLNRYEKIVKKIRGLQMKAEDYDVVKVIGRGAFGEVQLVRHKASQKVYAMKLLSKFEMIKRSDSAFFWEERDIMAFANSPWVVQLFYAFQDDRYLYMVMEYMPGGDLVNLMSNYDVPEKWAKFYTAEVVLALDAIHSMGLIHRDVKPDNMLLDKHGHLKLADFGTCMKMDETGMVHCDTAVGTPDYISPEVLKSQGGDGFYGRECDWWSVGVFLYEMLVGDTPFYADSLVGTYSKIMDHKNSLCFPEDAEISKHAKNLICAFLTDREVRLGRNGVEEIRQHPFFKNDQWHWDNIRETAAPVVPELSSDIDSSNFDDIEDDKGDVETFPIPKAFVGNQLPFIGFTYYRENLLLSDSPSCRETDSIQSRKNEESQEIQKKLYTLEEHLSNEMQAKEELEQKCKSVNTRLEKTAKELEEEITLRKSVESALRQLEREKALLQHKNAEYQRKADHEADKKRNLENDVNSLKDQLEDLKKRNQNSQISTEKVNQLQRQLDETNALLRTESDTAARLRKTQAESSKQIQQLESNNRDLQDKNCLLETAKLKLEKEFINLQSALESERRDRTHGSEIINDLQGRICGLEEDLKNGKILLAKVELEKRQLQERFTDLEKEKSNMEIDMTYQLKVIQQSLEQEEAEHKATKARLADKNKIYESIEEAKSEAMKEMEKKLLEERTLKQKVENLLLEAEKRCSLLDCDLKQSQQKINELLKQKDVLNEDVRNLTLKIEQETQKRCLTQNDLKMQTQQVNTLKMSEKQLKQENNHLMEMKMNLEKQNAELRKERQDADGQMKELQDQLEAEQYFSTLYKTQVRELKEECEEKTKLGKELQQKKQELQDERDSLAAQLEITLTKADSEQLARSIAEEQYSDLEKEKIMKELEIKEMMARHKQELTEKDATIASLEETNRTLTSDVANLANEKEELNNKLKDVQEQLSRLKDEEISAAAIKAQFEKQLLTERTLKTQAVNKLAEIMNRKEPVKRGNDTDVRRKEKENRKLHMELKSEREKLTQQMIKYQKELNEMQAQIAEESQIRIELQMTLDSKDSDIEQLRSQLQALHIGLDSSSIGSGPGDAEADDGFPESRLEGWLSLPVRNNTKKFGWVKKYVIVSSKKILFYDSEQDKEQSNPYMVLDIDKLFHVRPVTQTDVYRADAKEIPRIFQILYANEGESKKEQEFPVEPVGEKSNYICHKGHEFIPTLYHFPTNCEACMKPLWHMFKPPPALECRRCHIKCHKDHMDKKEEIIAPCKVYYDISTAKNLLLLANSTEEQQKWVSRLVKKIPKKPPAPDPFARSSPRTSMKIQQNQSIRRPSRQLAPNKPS
# Chain of MAP kinase-interacting serine/threonine-protein kinase 2 (Q9HBH9 whole entry): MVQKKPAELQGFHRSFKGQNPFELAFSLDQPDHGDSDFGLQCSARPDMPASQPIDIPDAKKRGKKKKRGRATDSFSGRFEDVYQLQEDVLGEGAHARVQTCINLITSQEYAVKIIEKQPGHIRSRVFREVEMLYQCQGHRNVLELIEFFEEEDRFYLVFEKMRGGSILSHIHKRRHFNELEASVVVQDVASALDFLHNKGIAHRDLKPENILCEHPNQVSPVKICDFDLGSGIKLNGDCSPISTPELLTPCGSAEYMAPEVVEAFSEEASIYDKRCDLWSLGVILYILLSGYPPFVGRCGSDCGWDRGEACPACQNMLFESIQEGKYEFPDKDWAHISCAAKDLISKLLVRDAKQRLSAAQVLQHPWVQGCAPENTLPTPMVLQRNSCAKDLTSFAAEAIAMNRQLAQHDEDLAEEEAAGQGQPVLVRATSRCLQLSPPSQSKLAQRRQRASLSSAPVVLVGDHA
SMILES,IC50 [1],IC50 [4],Ki [11],"remaining at 10 min, 0.5 µM [12]","remaining at 10 min, 0.5 µM [15]","remaining at 10 min, 0.5 µM [20]",IC50 [22],Activity [23],further results
CC(C)C[C@](C)(N)COc1ccc(-c2ccnc(C(F)F)c2)cc1C(F)(F)F,18000 nM,7.8 nM,0.07 nM,92%,98%,94%,0.6 nM,,"concentration at 5.5 h [2]: 880 nM; fraction unbound at 5 h, 10 µM [3]: 0.004; IC50 [5]: 1700 nM; fraction unbound at 5 h, 10 µM [6]: 0.002; Papp B→A at 2 h, 3 µM [7]: 1.7 ×10⁻⁶ cm/s; Papp A→B at 2 h, 3 µM [8]: 3.3 ×10⁻⁶ cm/s; Cmax [9]: 80 nM; Activity [10]: 30%; IC50 [13]: 380 nM; IC50 [14]: 380 nM; concentration at 5.5 h [16]: 510 nM; Papp at 4 h [17]: 55 ×10⁻⁶ cm/s; Kp at 5.5 h [18]: 11; fraction unbound at 5 h, 10 µM [19]: 0.008; Papp at 4 h [21]: 33.9 ×10⁻⁶ cm/s"
Cc1cc(-c2ccc(OC[C@@](C)(N)CC(C)C)c(C(F)F)c2)ccn1,> 20000 nM,0.8 nM,0.08 nM,81%,69%,74%,0.4 nM,57%,"fraction unbound at 5 h, 10 µM [3]: 0.031; fraction unbound at 5 h, 10 µM [6]: 0.02; Papp B→A at 2 h, 3 µM [7]: 6 ×10⁻⁶ cm/s; Papp A→B at 2 h, 3 µM [8]: 9.5 ×10⁻⁶ cm/s; Papp at 4 h [17]: 31.9 ×10⁻⁶ cm/s; fraction unbound at 5 h, 10 µM [19]: 0.037; Papp at 4 h [21]: 69.7 ×10⁻⁶ cm/s"
CC(C)C[C@H](N)COc1ccc(-c2ccnc(C(F)(F)F)c2)cc1C#N,1300 nM,,,,,,,,
Cc1cc(-c2cnc(OC[C@@](C)(N)CC(C)C)c(C(F)F)c2)ccn1,,,,65%,43%,43%,1.9 nM,,
Cc1cc(-c2cnc(OC[C@@](C)(N)CC(C)C)c(C#N)c2)ccn1,,,,,,,,28%,
Cc1cc(-c2ccc(OC[C@@](C)(N)CC(C)C)c(C3CC3)c2)ccn1,> 20000 nM,,,,,,,,
CC(C)C[C@](C)(N)COc1ccc(-c2ccncc2)cc1C(F)(F)F,630 nM,29 nM,0.17 nM,,,,0.6 nM,,
CC(C)C[C@](C)(N)COc1ccc(-c2ccnc(Cl)c2)nc1C(F)F,,,,87%,85%,97%,3.9 nM,59%,
CC(C)C[C@](C)(N)COc1ccc(-c2ccnc(C(F)F)c2)nc1Cl,,,,,,,,64%,
CC(C)C[C@](C)(N)COc1ccc(-c2ccnc(C(F)F)c2)cc1C(F)F,16000 nM,0.9 nM,0.04 nM,83%,,96%,0.4 nM,84%,"fraction unbound at 5 h, 10 µM [3]: 0.045; fraction unbound at 5 h, 10 µM [6]: 0.018; Papp B→A at 2 h, 3 µM [7]: 6.2 ×10⁻⁶ cm/s; IC50 [24]: 73 nM; IC50 [25]: 56 nM; IC50 [26]: 580 nM; Papp A→B at 2 h, 3 µM [8]: 10.8 ×10⁻⁶ cm/s; IC50 [13]: 420 nM; IC50 [27]: 420 nM; Papp at 4 h [17]: 42.7 ×10⁻⁶ cm/s; IC50 [28]: 440 nM; fraction unbound at 5 h, 10 µM [19]: 0.046; IC50 [29]: 180 nM; IC50 [30]: 280 nM; Papp at 4 h [21]: 99.9 ×10⁻⁶ cm/s"
Cc1cc(-c2ccc(OC[C@@](C)(N)CC(C)C)c(C#N)c2)ccn1,> 20000 nM,,,,,,,,
Cc1cc(-c2ccc(OC[C@@](C)(N)CC(C)C)c(C(F)(F)F)c2)ccn1,> 20000 nM,25 nM,0.22 nM,86%,66%,89%,0.9 nM,69%,"fraction unbound at 5 h, 10 µM [3]: 0.026; fraction unbound at 5 h, 10 µM [6]: 0.017; Papp B→A at 2 h, 3 µM [7]: 5.9 ×10⁻⁶ cm/s; Papp A→B at 2 h, 3 µM [8]: 7.1 ×10⁻⁶ cm/s; Papp at 4 h [17]: 30.5 ×10⁻⁶ cm/s; fraction unbound at 5 h, 10 µM [19]: 0.02; Papp at 4 h [21]: 36 ×10⁻⁶ cm/s"
CC(C)C[C@H](N)COc1ccc(-c2ccncc2)cc1,8700 nM,,,,,,,,
CC(C)C[C@](C)(N)COc1ccc(-c2ccnc(F)c2)cc1C(F)(F)F,> 20000 nM,,,,,,,,
Cc1cc(-c2ccc(OC[C@@](C)(N)CC(C)C)c(C(F)F)n2)ccn1,,11 nM,1.1 nM,82%,71%,81%,2.9 nM,26%,
CC(C)C[C@](C)(N)COc1ncc(-c2ccnc(Cl)c2)cc1C(F)F,,9.1 nM,,88%,76%,89%,3.1 nM,,
CC(C)C[C@](C)(N)COc1ncc(-c2ccnc(C(F)F)c2)cc1C#N,,,,,,,,50%,
Cc1cc(-c2ccc(OC[C@@H](N)CC(C)C)c(C#N)c2)ccn1,2400 nM,89 nM,0.71 nM,,,,0.8 nM,,
COc1cc(-c2ccc(OC[C@@H](N)CC(C)C)c(C#N)c2)ccn1,540 nM,,,,,,,,
Cc1cc(-c2ccc(OC[C@@](C)(N)CC(C)C)c(C)n2)ccn1,,,7.2 nM,83%,78%,95%,36 nM,1%,
CC(C)C[C@](C)(N)COc1ccc(-c2ccnc(C(F)F)c2)cc1C#N,> 20000 nM,6.4 nM,0.25 nM,71%,97%,85%,0.6 nM,100%,"fraction unbound at 5 h, 10 µM [3]: 0.14; fraction unbound at 5 h, 10 µM [6]: 0.079; Papp B→A at 2 h, 3 µM [7]: 17.7 ×10⁻⁶ cm/s; Papp A→B at 2 h, 3 µM [8]: 22.2 ×10⁻⁶ cm/s; Papp at 4 h [17]: 68.7 ×10⁻⁶ cm/s; fraction unbound at 5 h, 10 µM [19]: 0.14; Papp at 4 h [21]: 68.1 ×10⁻⁶ cm/s"
NCC1(CC(=O)O)CCCCC1 [GABAPENTIN],,,,,,,,,Activity [31]: Non-Toxic
CC(C)C[C@](C)(N)COc1ccc(-c2ccnc(C(F)F)c2)cc1C1CC1,> 20000 nM,,,,,,,,Papp at 4 h [21]: 78.4 ×10⁻⁶ cm/s
